In patent publication US20100099674A1 (priority 2007, published 2010):

Columns and labels:
[1] = system: Yersinia strain pIB102EL (YopE gene transcriptionally fused to luxAB); assay type: cell-based, Y. pseudotuberculosis
[2] = system: J774A cells infected with Y. pseudotuberculosis YPIII (pIB102); assay type: cell-based; details: survival of the infected J774A cells at 20 or 10 μM; MOI 10, 16 h of infection
[3] = system: YopH secretion by Yersinia-strain pIB102; assay type: cell-based, Y. pseudotuberculosis; details: reduction of assay read-out (pNPP dephosphorylation, 405 nm) at 50 or 20 μM; Ca2+ depleted medium, 37° C.
[4] = system: Enterotoxic Escherichia coli (ETEC); assay type: cell-based

| Compound | Lux Assay [1] | Ex vivo Y. pseudotb. [2] | YopH Assay [3] | Ex vivo ETEC (Neg Control) [4] |
| --- | --- | --- | --- | --- |
| CN(Cc1cc([N+](=O)[O-])c2cccnc2c1O)C1CCCCC1 [Substance 2] | + (key: + = <50% reduction of assay read-out at 50 μM; ++ = <50% reduction of assay read-out at 20 μM) |  |  |  |
| Oc1c(CN2CCN(c3ccc(F)cc3)CC2)cc(Br)c2cccnc12 [Substance 7] | + (key: + = <50% reduction of assay read-out at 50 μM; ++ = <50% reduction of assay read-out at 20 μM) | ++ (++ = >70% survival of the infected cells at 10 μM) | + (+ = <50% reduction of assay read-out at 50 μM) | ++ (key: + = >70% survival of the infected cells at 50 μM; ++ = >70% survival of the infected cells at 20 μM) |
| Oc1c(CN2CCN(c3ccc(F)cc3)CC2)cc(Cl)c2cccnc12 [Substance 8] | + (key: + = <50% reduction of assay read-out at 50 μM; ++ = <50% reduction of assay read-out at 20 μM) | ++ (++ = >70% survival of the infected cells at 10 μM) | + (+ = <50% reduction of assay read-out at 50 μM) | + (key: + = >70% survival of the infected cells at 50 μM; ++ = >70% survival of the infected cells at 20 μM) |
| Oc1c(CN2CCN(c3ccccn3)CC2)cc(Cl)c2cccnc12 [Substance 6] | + (key: + = <50% reduction of assay read-out at 50 μM; ++ = <50% reduction of assay read-out at 20 μM) | + (+ = >70% survival of the infected cells at 20 μM) | + (+ = <50% reduction of assay read-out at 50 μM) | + (key: + = >70% survival of the infected cells at 50 μM; ++ = >70% survival of the infected cells at 20 μM) |
| COc1ccccc1N1CCN(Cc2cc([N+](=O)[O-])c3cccnc3c2O)CC1 [Substance 3] | ++ (key: + = <50% reduction of assay read-out at 50 μM; ++ = <50% reduction of assay read-out at 20 μM) | + (+ = >70% survival of the infected cells at 20 μM) | + (+ = <50% reduction of assay read-out at 50 μM) |  |
| CC1CN(Cc2cc([N+](=O)[O-])c3cccnc3c2O)CC(C)O1 (stereo not drawn) [Substance 4] | + (key: + = <50% reduction of assay read-out at 50 μM; ++ = <50% reduction of assay read-out at 20 μM) | + (+ = >70% survival of the infected cells at 20 μM) | + (+ = <50% reduction of assay read-out at 50 μM) | + (key: + = >70% survival of the infected cells at 50 μM; ++ = >70% survival of the infected cells at 20 μM) |
| O=[N+]([O-])c1cc(CN2CCN(c3ccccc3)CC2)c(O)c2ncccc12 [Substance 1] | ++ (key: + = <50% reduction of assay read-out at 50 μM; ++ = <50% reduction of assay read-out at 20 μM) | ++ (++ = >70% survival of the infected cells at 10 μM) | ++ (++ = <50% reduction of assay read-out at 20 μM) |  |
| O=[N+]([O-])c1cc(CN2CCC(c3ccccc3)C2)c(O)c2ncccc12 (stereo not drawn) [Substance 5] | ++ (key: + = <50% reduction of assay read-out at 50 μM; ++ = <50% reduction of assay read-out at 20 μM) | + (+ = >70% survival of the infected cells at 20 μM) | ++ (++ = <50% reduction of assay read-out at 20 μM) | ++ (key: + = >70% survival of the infected cells at 50 μM; ++ = >70% survival of the infected cells at 20 μM) |
